Our source for the IC50 values is patent US20240174634A1, “Aldehyde Dehydrogenase Inhibitors and Their Therapeutic Use” (priority 2020, published 2024).

The target in one assay is T1, ALDH1A1 (Homo sapiens, UniProt P00352).
T1 construct: His-tag; made in house; host or cells: E. coli Rosetta (DE3)
T1 sequence (P00352 1-501): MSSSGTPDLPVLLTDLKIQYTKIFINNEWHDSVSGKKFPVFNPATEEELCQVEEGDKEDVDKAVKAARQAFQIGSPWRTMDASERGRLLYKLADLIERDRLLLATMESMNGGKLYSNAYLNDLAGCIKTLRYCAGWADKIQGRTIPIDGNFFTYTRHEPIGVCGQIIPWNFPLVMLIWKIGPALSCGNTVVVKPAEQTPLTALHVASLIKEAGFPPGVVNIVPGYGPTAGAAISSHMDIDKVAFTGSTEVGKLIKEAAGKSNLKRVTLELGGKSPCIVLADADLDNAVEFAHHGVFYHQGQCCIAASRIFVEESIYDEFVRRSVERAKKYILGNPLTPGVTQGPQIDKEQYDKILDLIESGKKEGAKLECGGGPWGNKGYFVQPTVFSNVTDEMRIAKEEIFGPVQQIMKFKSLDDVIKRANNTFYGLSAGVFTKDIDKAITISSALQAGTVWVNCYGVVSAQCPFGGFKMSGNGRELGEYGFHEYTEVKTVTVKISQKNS
The assay is described as follows: Selectivity biochemical assay, NAD(P)H-Glo Detection System. The essentials: (§1)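 Recombinant full-length His-tagged human enzymes expressed in E. coli were pre-incubated 30 min at room temperature with compound (10-point, 3-fold series; top 20 μM for ALDH1A3, 250 μM for ALDH1A1/1A2). Propionaldehyde and NAD were then added at Km; NADH was read by NAD(P)H-Glo luminescence. Buffer: Tris (pH 7.6 for 1A1/1A2, 9.0 for 1A3), 1 mM TCEP, 0.01% Tween-20.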

Another assay addresses T2, ALDH1A2 (Homo sapiens, UniProt O94788).
T2 construct: His-tag; made in house; host or cells: E. coli Rosetta (DE3)
T2 sequence (O94788 1-518): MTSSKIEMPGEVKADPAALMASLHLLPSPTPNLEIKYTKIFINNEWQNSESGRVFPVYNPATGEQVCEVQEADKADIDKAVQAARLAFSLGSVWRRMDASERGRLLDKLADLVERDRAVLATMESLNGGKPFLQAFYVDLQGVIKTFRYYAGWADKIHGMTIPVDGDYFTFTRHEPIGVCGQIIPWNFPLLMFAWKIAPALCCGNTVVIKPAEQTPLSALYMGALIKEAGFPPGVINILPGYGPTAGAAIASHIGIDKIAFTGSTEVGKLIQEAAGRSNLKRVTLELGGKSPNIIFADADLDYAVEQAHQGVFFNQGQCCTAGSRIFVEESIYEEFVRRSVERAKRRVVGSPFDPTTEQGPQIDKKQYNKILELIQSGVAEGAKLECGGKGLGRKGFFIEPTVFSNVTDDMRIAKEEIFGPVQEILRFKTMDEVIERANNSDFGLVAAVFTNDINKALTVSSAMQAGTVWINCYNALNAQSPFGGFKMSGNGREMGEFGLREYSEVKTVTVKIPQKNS
Described as above. The method in brief:
as §1

As to `O=C1CCc2cc(OCCn3nccc3-c3cccc(F)c3)ccc2N1` [ALDHI-2023, 6-[2-[5-(3-fluorophenyl)pyrazol-1-yl]ethoxy]-3,4-dihydro-1H-quinolin-2-one], the IC50 on ALDH1A1 was at least 100 µM; at ALDH1A2 it was under 0.1 µM.
Regarding `O=C1CCc2cc(NC(=O)c3ocnc3-c3cccc(F)c3)ccc2N1` [ALDHI-1019, 4-(3-fluorophenyl)-N-(2-oxo-3,4-dihydro-1H-quinolin-6-yl)oxazole-5-carboxamide], the IC50 against ALDH1A1 and at ALDH1A2 was at least 100 µM in each case.
In the case of `O=C1CSc2cc(OCCN3CCCC3c3ccncc3)ccc2N1` (stereo not shown) [ALDHI-2029, 7-[2-[2-(4-pyridyl)pyrrolidin-1-yl]ethoxy]-4H-1,4-benzothiazin-3-one], the figures for the half-inhibitory concentration (IC50) on ALDH1A1 and against ALDH1A2 were at least 100 µM and 10 to 100 µM, respectively.
Consider `O=C1CSc2cc(OCCN3CCCC3c3ccccn3)ccc2N1` (stereo not shown) [ALDHI-2027, 7-[2-[2-(2-pyridyl)pyrrolidin-1-yl]ethoxy]-4H-1,4-benzothiazin-3-one], for which the IC50 against ALDH1A1 was at least 100 µM; against ALDH1A2 it was 10 to 100 µM.
For `COc1cccc(C2CCCN2CCOc2ccc3c(c2)CCC(=O)N3)c1` (stereo not shown) [ALDHI-2034, 6-[2-[2-(3-methoxyphenyl)pyrrolidin-1-yl]ethoxy]-3,4-dihydro-1H-quinolin-2-one] the same measures were at least 100 µM and 10 to 100 µM.
For the compound `O=C1CCc2cc(OCCN3CCCC3c3ccsc3)ccc2N1` (stereo not shown) [ALDHI-2014, 6-[2-[2-(3-thienyl)pyrrolidin-1-yl]ethoxy]-3,4-dihydro-1H-quinolin-2-one], the concentration for half-maximal inhibition (IC50) against ALDH1A1 and on ALDH1A2 was at least 100 µM in each case.
On to `CC1(C)Oc2cc(OCCN3CCCC3c3cccc(F)c3)ccc2NC1=O` (stereo not shown) [ALDHI-2043, 7-[2-[2-(3-fluorophenyl)pyrrolidin-1-yl]ethoxy]-2,2-dimethyl-4H-1,4-benzoxazin-3-one], for which the IC50 is at least 100 µM against ALDH1A1 and 1 to 10 µM on ALDH1A2.
`O=C1CCc2cc(OCCN3CCCC3c3ccccc3F)ccc2N1` (stereo not shown) [ALDHI-2002, 6-[2-[2-(2-fluorophenyl)pyrrolidin-1-yl]ethoxy]-3,4-dihydro-1H-quinolin-2-one]: the 50% inhibitory concentration (IC50) was at least 100 µM against ALDH1A1 and 10 to 100 µM at ALDH1A2.
`O=C1CSc2cc(OCCN3CCCC3c3cccc(F)c3)ccc2N1` (stereo not shown) [ALDHI-2008, 7-[2-[2-(3-fluorophenyl)pyrrolidin-1-yl]ethoxy]-4H-1,4-benzothiazin-3-one]: the IC50 against ALDH1A1 was at least 100 µM; against ALDH1A2, 10 to 100 µM.
For `O=C1CCc2cc(NC(=O)c3ncsc3-c3cccc(F)c3)ccc2N1` [ALDHI-1014, 5-(3-fluorophenyl)-N-(2-oxo-3,4-dihydro-1H-quinolin-6-yl)thiazole-4-carboxamide], the results for the IC50 on ALDH1A1 and on ALDH1A2 were at least 100 µM and 10 to 100 µM, respectively.
As for `O=C1CCc2cc(OCCN3CCCC3c3ccncc3)ccc2N1` (stereo not shown) [ALDHI-2004, 6-[2-[2-(4-pyridyl)pyrrolidin-1-yl]ethoxy]-3,4-dihydro-1H-quinolin-2-one], the IC50 on ALDH1A1 was at least 100 µM; against ALDH1A2 it was 10 to 100 µM.
`O=C1CCc2cc(OCCN3CCCC3c3cccs3)ccc2N1` (stereo not shown) [ALDHI-2013, 6-[2-[2-(2-thienyl)pyrrolidin-1-yl]ethoxy]-3,4-dihydro-1H-quinolin-2-one]: the figures for the IC50 against ALDH1A1 and on ALDH1A2 were at least 100 µM and 1 to 10 µM, respectively.
Take `O=C1CCc2cc(NC(=O)c3ncsc3-c3ccsc3)ccc2N1` [ALDHI-1011, N-(2-oxo-3,4-dihydro-1H-quinolin-6-yl)-5-(3-thienyl)thiazole-4-carboxamide]: the results for the IC50 against ALDH1A1 and on ALDH1A2 were at least 100 µM and 1 to 10 µM, respectively.
As for `Cc1noc(-c2ccccc2C(=O)Nc2ccc3c(c2)CCC(=O)N3)n1` [ALDHI-1008, 2-(3-methyl-1,2,4-oxadiazol-5-yl)-N-(2-oxo-1,2,3,4-tetrahydroquinolin-6-yl)benzamide], the IC50 on ALDH1A1 was at least 100 µM; at ALDH1A2, 1 to 10 µM.
The matching figures for `CN(C)c1nc(-c2cccc(F)c2)c(C(=O)Nc2ccc3c(c2)CCC(=O)N3)s1` [ALDHI-1002, 2-(dimethylamino)-4-(3-fluorophenyl)-N-(2-oxo-3,4-dihydro-1H-quinolin-6-yl)thiazole-5-carboxamide]: at least 100 µM and 1 to 10 µM.
In the case of `O=C1CCCc2cc(OCCN3CCCC3c3cccc(F)c3)ccc2N1` (stereo not shown) [ALDHI-2020, 7-[2-[2-(3-fluorophenyl)pyrrolidin-1-yl]ethoxy]-1,3,4,5-tetrahydro-1-benzazepin-2-one], the IC50 against ALDH1A1 was at least 100 µM; at ALDH1A2, 1 to 10 µM.
Consider `O=C1COc2cc(NC(=O)c3scnc3-c3cccc(F)c3)ccc2N1` [ALDHI-1016, 4-(3-fluorophenyl)-N-(3-oxo-4H-1,4-benzoxazin-7-yl)thiazole-5-carboxamide], for which the 50% inhibitory concentration (IC50) against ALDH1A1 was at least 100 µM; against ALDH1A2 it was 1 to 10 µM.
Consider `O=C1CCc2cc(NC(=O)c3scnc3-c3cccs3)ccc2N1` [ALDHI-1023, N-(2-oxo-3,4-dihydro-1H-quinolin-6-yl)-4-(2-thienyl)thiazole-5-carboxamide], for which the IC50 against ALDH1A1 was at least 100 µM; at ALDH1A2, 0.1 to 1 µM.
The matching figures for `O=C1CCc2cc(NC(=O)c3sc(N4CCOCC4)nc3-c3cccc(F)c3)ccc2N1` [ALDHI-1001, 4-(3-fluorophenyl)-2-morpholino-N-(2-oxo-3,4-dihydro-1H-quinolin-6-yl)thiazole-5-carboxamide]: at least 100 µM and at least 100 µM.
The matching figures for `O=C1CCc2cc(OCCN3CC(F)CC3c3cccc(F)c3)ccc2N1` (stereo not shown) [ALDHI-2052, 6-[2-[4-fluoro-2-(3-fluorophenyl)pyrrolidin-1-yl]ethoxy]-3,4-dihydro-1H-quinolin-2-one]: at least 100 µM and 0.1 to 1 µM.
As for `O=C1CCc2cc(NC(=O)c3sccc3-c3cccc(F)c3)ccc2N1` [ALDHI-1022, 3-(3-fluorophenyl)-N-(2-oxo-3,4-dihydro-1H-quinolin-6-yl)thiophene-2-carboxamide], the IC50 at ALDH1A1 lay in the range of 10 to 100 µM; at ALDH1A2 it was 1 to 10 µM.
The matching figures for `Cn1cc(C2CCCN2CCOc2ccc3c(c2)SCC(=O)N3)cn1` (stereo not shown) [ALDHI-2026, 7-[2-[2-(1-methylpyrazol-4-yl)pyrrolidin-1-yl]ethoxy]-4H-1,4-benzothiazin-3-one]: at least 100 µM and at least 100 µM.
For `O=C1CCc2cc(NC(=O)c3sc(N4CCNCC4)nc3-c3cccc(F)c3)ccc2N1` [ALDHI-1005, 4-(3-fluorophenyl)-N-(2-oxo-3,4-dihydro-1H-quinolin-6-yl)-2-piperazin-1-yl-thiazole-5-carboxamide] the same measures were at least 100 µM and 10 to 100 µM.
As to `O=C1CCc2cc(OCCN3CCC3c3cccc(F)c3)ccc2N1` (stereo not shown) [ALDHI-2021, 6-[2-[2-(3-fluorophenyl)azetidin-1-yl]ethoxy]-3,4-dihydro-1H-quinolin-2-one], the IC50 at ALDH1A1 is at least 100 µM; on ALDH1A2, 1 to 10 µM.
For `O=C1CCc2cc(NC(=O)c3scnc3-c3cccc(F)c3)ccc2N1` [ALDHI-1003, 4-(3-fluorophenyl)-N-(2-oxo-3,4-dihydro-1H-quinolin-6-yl)thiazole-5-carboxamide], the IC50 is at least 100 µM against ALDH1A1 and 1 to 10 µM on ALDH1A2.
Take `O=C1CCc2cc(NC(=O)c3ccccc3-c3cccc(F)c3)ccc2N1` [ALDHI-1007, 3′-fluoro-N-(2-oxo-1,2,3,4-tetrahydroquinolin-6-yl)-[1,1′-biphenyl]-2-carboxamide]: the results for the IC50 against ALDH1A1 and against ALDH1A2 were at least 100 µM and 1 to 10 µM, respectively.
